From ChEMBL document CHEMBL1154104, “S- and C-nucleosidoquinazoline as new nucleoside analogs with potential analgesic and anti-inflammatory activity” (Eur J Med Chem, 2009)

Key:
Rattus norvegicus [1] = assay: Antiinflammatory activity against carrageenan-induced paw edema in Sprague-Dawley rat at 70 mg/kg, po pretreated 1 hr before carrageenan challenge measured after 4 hrs by plethysmometer; assay type: functional
Mus musculus = assay: Analgesic activity in Swiss albino mouse assessed as inhibition of acetic acid-induced writhing response at 70 mg/kg, po pretreated 1 hr before acetic acid challenge; assay type: functional
Rattus norvegicus [2] = assay: Gastrointestinal toxicity in Wistar rat assessed as ulcerogenic induces at 200 mg/kg, po after 17 hrs; assay type: organism-based; set-up: dose 200 mg/kg, route oral; settings: in vivo

| Structure (SMILES) | inhibition in vivo at 70 mg/kg (Rattus norvegicus [1]) | inhibition in vivo at 70 mg/kg (Mus musculus) | UI (Rattus norvegicus [2]) |
| --- | --- | --- | --- |
| COc1ccc(C2NC(=S)NC3=C2C(=O)CC(C)(C)C3)cc1 (centres undefined) | 71% | – | – |
| CC1(C)CC(=O)C2=C(C1)N=C(NN)NC2c1ccc(Cl)cc1 (centres undefined) | 71% | – | – |
| CC1(C)CC(=O)C2=C(C1)N=C1NN=C([C@H](O)[C@@H](O)[C@@H](O)[C@H](O)CO)N1C2c1ccc(Cl)cc1 (some centres undefined) | 85% | 59% | 0.8 |
| CC1(C)CC(=O)C2=C(C1)N=C1NN=C([C@H](O)[C@@H](O)[C@H](O)CO)N1C2c1ccc(Cl)cc1 (some centres undefined) | 82% | 71% | 0.6 |
| CC1(C)CC(=O)C2=C(C1)N=C1NN=C([C@@H](O)[C@@H](O)[C@H](O)[C@H](O)CO)N1C2c1ccc(Cl)cc1 (some centres undefined) | 82% | 57% | 0.6 |
| CC1(C)CC(=O)C2=C(C1)NC(=S)NC2c1ccccc1 (centres undefined) | 50% | – | – |
| CC1(C)CC(=O)C2=C(C1)N=C1NN=C([C@@H](O)[C@@H](O)[C@H](O)CO)N1C2c1ccc(Cl)cc1 (some centres undefined) | 82% | 56.6% | 0.5 |
| CC1(C)CC(=O)C2=C(C1)N=C1NN=C([C@@H](O)[C@H](O)[C@H](O)CO)N1C2c1ccc(Cl)cc1 (some centres undefined) | 84% | 59.5% | 0.5 |
| CC(=O)OC[C@H]1O[C@@H](SC2=NC3=C(C(=O)CC(C)(C)C3)C(c3ccc(Cl)cc3)N2)[C@H](OC(C)=O)[C@@H]1OC(C)=O (some centres undefined) | 76% | – | – |
| CC1(C)CC(=O)C2=C(C1)N=C1NN=C(c3ccc(Cl)cc3)N1C2c1ccc(Cl)cc1 (centres undefined) | 68% | – | – |
| CC1(C)CC(=O)C2=C(C1)N=C1NN=C([C@H](O)[C@@H](O)[C@H](O)[C@H](O)CO)N1C2c1ccc(Cl)cc1 (some centres undefined) | 86% | 73% | 0.5 |
| CC(=O)OC[C@H]1O[C@@H](SC2=NC3=C(C(=O)CC(C)(C)C3)C(c3ccc(Cl)cc3)N2)[C@H](OC(C)=O)[C@@H](OC(C)=O)[C@H]1OC(C)=O (some centres undefined) | 76% | – | – |
| CC1(C)CC(=O)C2=C(C1)NC(=S)NC2c1ccc(Cl)cc1 (centres undefined) | 69% | – | – |
| CC(=O)OC[C@H]1O[C@@H](SC2=NC3=C(C(=O)CC(C)(C)C3)C(c3ccc(Cl)cc3)N2)[C@H](OC(C)=O)[C@@H](OC(C)=O)[C@@H]1OC(C)=O (some centres undefined) | 75% | – | – |
| CC(C)Cc1ccc(C(C)C(=O)O)cc1 (centres undefined) [IBUPROFEN] | 92% | 83.5% | 1.8 |
